According to ChEMBL document CHEMBL5058564, “EUbOPEN Chemogenomics Library 2 (Incucyte)” (2022):

How the values were obtained:
Assay type in all cases: toxicity, cell-based
HEK-293T = assay: Incucyte cell viability with HEK293T; settings: human, 10 µM, compound concentration 10 uM
U2OS = assay: Incucyte cell viability with U2OS; settings: human, 10 µM, compound concentration 10 uM
Fibroblast = assay: Incucyte cell viability with human fibroblast; settings: 10 µM, compound concentration 10 uM
[1] = 0 h, replicate number 2, timepoint 0 hours
[2] = 6 h, replicate number 1, timepoint 6 hours
[3] = 12 h, replicate number 1, timepoint 12 hours
[4] = 18 h, replicate number 1, timepoint 18 hours
[5] = 24 h, replicate number 1, timepoint 24 hours
[6] = 0 h, replicate number 1, timepoint 0 hours
[7] = 6 h, replicate number 2, timepoint 6 hours
[8] = 12 h, replicate number 2, timepoint 12 hours
[9] = 18 h, replicate number 2, timepoint 18 hours
[10] = 24 h, replicate number 2, timepoint 24 hours
Further: unitless GR value; below 1 slowed growth and below 0 cell loss.

Row | Structure (SMILES) | Growth Rate (HEK-293T; [1]) | Growth Rate (HEK-293T; [2]) | Growth Rate (HEK-293T; [3]) | Growth Rate (HEK-293T; [4]) | Growth Rate (HEK-293T; [5]) | Growth Rate (U2OS; [1]) | Growth Rate (U2OS; [2]) | Growth Rate (U2OS; [7]) | Growth Rate (U2OS; [3]) | Growth Rate (U2OS; [8]) | Growth Rate (U2OS; [4]) | Growth Rate (U2OS; [9]) | Growth Rate (Fibroblast; [6]) | Growth Rate (Fibroblast; [1]) | Growth Rate (Fibroblast; [3]) | Growth Rate (Fibroblast; [4]) | Growth Rate (Fibroblast; [5]) | Growth Rate (Fibroblast; [7]) | Growth Rate (Fibroblast; [9]) | Growth Rate (Fibroblast; [2]) | other results
1 | Cc1nn(C)c(C)c1-c1cccc2c1CC[C@H](N(C)C)C2 | 0.25 | 0.95 | 0.97 | 0.97 | 0.9 | 0.01 | 0.52 | 0.91 | 0.78 | 0.8 | 0.69 | 0.97 | 0.48 | -0.09 | 0.75 | 0.49 | 0.61 | – | – | – | Growth Rate (U2OS; [6]): -0.3; Growth Rate (U2OS; [5]): 0.86; Growth Rate (U2OS; [10]): 0.99
2 | CN1CCC(C(=O)c2cccc(NC(=O)c3c(F)cc(F)cc3F)n2)CC1 | -1 | 0.24 | 0.74 | 0.81 | 0.93 | 0.68 | 0.94 | – | – | – | – | – | – | 0.32 | 0.6 | 0.86 | 0.59 | 0.9 | 0.96 | – | Growth Rate (Fibroblast; [10]): 0.78
3 | CCc1nn2c(C)cc(C)nc2c1Cc1ccc(-c2nnc(C3CCNCC3)o2)cc1 | 0.38 | 0.9 | – | 0.88 | – | 0.09 | – | – | – | – | – | – | – | – | -0.55 | -0.43 | -0.25 | 0.22 | 0.56 | -0.59 | Growth Rate (Fibroblast; [8]): 0.37; Growth Rate (Fibroblast; [10]): 0.65
4 | Fc1cccc(/C=N/N=C/c2cccc(F)c2)c1 | 0.2 | 0.72 | 0.77 | 0.89 | 0.96 | 0.84 | – | 0.83 | – | 0.84 | – | – | – | – | 0.7 | – | 0.91 | – | – | -0.08 | –
5 | Cc1ccccc1C#Cc1ccc(CCC(=O)O)cc1 | 0.37 | 0.63 | 0.72 | 0.73 | 0.74 | – | 0.52 | 0.9 | 0.67 | – | 0.7 | 0.92 | 0.45 | 0.93 | – | – | – | 0.07 | 0.35 | – | Growth Rate (HEK-293T; [7]): 0.81; Growth Rate (HEK-293T; [8]): 0.75; Growth Rate (HEK-293T; [9]): 0.67; Growth Rate (HEK-293T; [10]): 0.62; Growth Rate (U2OS; [6]): 0.25; Growth Rate (U2OS; [5]): 0.77; Growth Rate (Fibroblast; [8]): 0.32; Growth Rate (Fibroblast; [10]): 0.31
6 | NC[C@H](O)c1ccc(O)c(O)c1.O.O=C(O)C(O)C(O)C(=O)O | 0.69 | 0.63 | 0.75 | 0.76 | 0.86 | 0.46 | – | 0.72 | – | 0.93 | – | 0.98 | 0.92 | 0.62 | 0.79 | 0.97 | 0.77 | – | – | 0.19 | Growth Rate (HEK-293T; [9]): 0.8
7 | NC(=O)c1ccc(CNC(=O)NC[C@H]2CN(Cc3ccc(Cl)c(Cl)c3)CCO2)cc1 | 0.54 | 0.47 | 0.86 | 0.88 | 0.88 | 0.11 | 0.32 | – | 0.8 | – | 0.91 | – | 0.21 | – | – | – | – | – | – | – | Growth Rate (HEK-293T; [9]): 1; Growth Rate (HEK-293T; [10]): 0.8
8 | COc1ccccc1N1CCN(CCCCNC(=O)c2ccc3ccccc3c2)CC1.Cl | 0.97 | 0.59 | – | 0.54 | 0.56 | – | 0.51 | 0.78 | 0.58 | 0.96 | 0.77 | 0.97 | 0.79 | -0.14 | 0.23 | – | -0.24 | 0.14 | 0.09 | -0.59 | Growth Rate (HEK-293T; [7]): 0.65; Growth Rate (HEK-293T; [8]): 0.83; Growth Rate (HEK-293T; [10]): 0.66; Growth Rate (U2OS; [6]): 0.06; Growth Rate (U2OS; [5]): 0.81; Growth Rate (U2OS; [10]): 0.92; Growth Rate (Fibroblast; [8]): -0.06
